This is an account of results in ChEMBL document CHEMBL1151512, “Design and synthesis of new potential photoaffinity labels for mammalian squalene epoxidase” (Bioorg Med Chem Lett, 1997).

As usually defined, the IC50 is the point on the concentration scale where inhibition reaches its midpoint. A lower IC50 goes with greater potency in that assay.

The test deals with HepG2. Description: In vitro cholesterol biosynthesis inhibition in human HepG2 by measuring the extend of cholesterol radiolabeling after incubation with [14C]mevalonate. The class given is functional, cell-based.
Turning to `CCN(CC#Cc1ccccc1N=[N+]=[N-])Cc1cccc(OCc2cc(-c3ccsc3)cs2)c1`, the IC50 was > 100000 nM.

`CCN(C/C=C/C#CC(C)(C)C)Cc1cccc(OC[Si](C)(C)c2ccc(C#N)cc2)c1` returned an IC50 of 60 nM.

Compound `CCN(C/C=C/C#CC(C)(C)C)Cc1cccc(OC[Si](C)(C)c2ccc(N=[N+]=[N-])cc2)c1` had an IC50 of 1200 nM. Then `CCN(CC#Cc1ccc(N=[N+]=[N-])cc1)Cc1cccc(OCc2cc(-c3ccsc3)cs2)c1`, with 2100 nM.

On to `CCN(CC#Cc1ccccc1)Cc1cccc(OCc2cc(-c3ccsc3)cs2)c1`, for which the IC50 is 70 nM. Then `CCN(CC#Cc1cccc(N=[N+]=[N-])c1)Cc1cccc(OCc2cc(-c3ccsc3)cs2)c1`, with 540 nM.
